Each structure is given as a SMILES string.

One experiment has as its target KRAS G12D (Homo sapiens (Human), UniProt P01116+P62937, G12D). In words: Ras-Raf (BRAF RBD) disruption / FRET / MOA assay, KRAS G12D. The note with it: Ras-Raf disruption/FRET/MOA assay; class symbols; read-out: KRAS G12D FRET data IC50. It counts as biochemical. The gist of the method: (§1)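 Compound-driven ternary complex of nucleotide-loaded Ras with cyclophilin A, disrupting BRAF RBD binding. 10-point 3-fold dilution from 30 μM final, 3 h at 25° C, then anti-His Eu-W1024 (10 nM) and anti-GST allophycocyanin (50 nM) for 1.5 h. IC50 from TR-FRET ratio decrease versus DMSO.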

Experiment [1] relates to NCI-H358 cells (K-Ras G12C). In words: Potency assay: pERK in NCI-H358 cells. It counts as cell-based, human. The conditions noted are these: Homo sapiens, NCI-H358; H358 KRAS G12C; read-out: pERK EC50. The gist of the method: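 4 h cpd, 37 °C; 10-pt 3-fold series, 10 mM DMSO top stock, duplicates. Readout pERK: AlphaLISA SureFire Ultra or In-Cell Western (IR-800CW secondary, DRAQ5 DNA stain). IC50, 4-PL fit vs log conc.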

In a further experiment the target is KRAS G12V (Homo sapiens (Human), UniProt P01116+P62937, G12V). In words: Ras-Raf (BRAF RBD) disruption / FRET / MOA assay, KRAS G12V. It counts as biochemical. The note with it: read-out: IC50* KRAS G12V FRET data. The gist of the method:
as §1

For a further experiment, the target named is K-Ras G13C (Homo sapiens (Human), UniProt P01116+P62937, G13C). In words: Ras-Raf (BRAF RBD) disruption / FRET / MOA assay, KRAS G13C. The note with it: KRAS G13C; Ras-Raf disruption/FRET/MOA assay; read-out: IC50* KRAS G13C FRET data. It counts as biochemical. Summed up:
as §1

Another experiment deals with KRAS WT (Homo sapiens (Human), UniProt P01116+P62937). In words: Ras-Raf (BRAF RBD) disruption / FRET / MOA assay, KRAS WT. It counts as biochemical. The conditions noted are these: read-out: IC50* KRAS WT FRET data. The gist of the method: as §1
KRAS WT, sequence (P01116-2 other isoform, or with tags, fused parts or gaps): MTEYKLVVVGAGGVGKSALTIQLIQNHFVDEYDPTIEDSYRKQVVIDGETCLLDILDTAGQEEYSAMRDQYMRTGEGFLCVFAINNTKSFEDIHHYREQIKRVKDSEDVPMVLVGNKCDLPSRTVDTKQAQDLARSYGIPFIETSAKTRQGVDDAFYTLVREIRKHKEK
KRAS WT, sequence (P62937 whole entry): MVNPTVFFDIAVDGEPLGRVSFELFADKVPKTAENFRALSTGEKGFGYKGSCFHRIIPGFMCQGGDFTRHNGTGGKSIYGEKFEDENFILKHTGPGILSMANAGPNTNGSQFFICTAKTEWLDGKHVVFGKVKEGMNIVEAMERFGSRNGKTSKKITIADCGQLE
The next experiment addresses NRAS G12C (Homo sapiens (Human), UniProt P01111+P62937, G12C). Put plainly: Ras-Raf (BRAF RBD) disruption / FRET / MOA assay, NRAS G12C. It counts as biochemical. The note with it: read-out: IC50* NRAS G12C FRET data. The gist of the method: as §1
Another experiment relates to NCI-H358 (K-Ras G12C). Put plainly: CellTiter-Glo cell viability assay, NCI-H358. It counts as cell-based, human. The note with it: Homo sapiens, NCI-H358, 120 h, NCI-H358, 5-day treatment; class symbols; read-out: Additional H358 Cell Viability assay data (K-Ras G12C, IC50). Summed up:
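Viability measured by CellTiter-Glo luminescence on day 5 following direct addition of compound to plated cells. Values expressed as percent of mean DMSO signal; curves fitted with a four-parameter logistic model.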

A further experiment addresses KRAS G12S (Homo sapiens (Human), UniProt P01116+P62937, G12S). Put plainly: Ras-Raf (BRAF RBD) disruption / FRET / MOA assay, KRAS G12S. It counts as biochemical. The conditions noted are these: Ras-Raf disruption/FRET/MOA assay; class symbols; read-out: KRAS G12S FRET data IC50. Summed up:
as §1

For another experiment, the target named is K-Ras G12C (Homo sapiens (Human), UniProt P01116+P62937, G12C). In words: Ras-Raf (BRAF RBD) disruption / FRET / MOA assay, KRAS G12C. It counts as biochemical. The note with it: KRAS G12C; Ras-Raf disruption/FRET/MOA assay; read-out: IC50* KRAS G12C FRET data. Summed up: as §1
K-Ras G12C, sequence (P01116-2 other isoform, or with tags, fused parts or gaps G12C): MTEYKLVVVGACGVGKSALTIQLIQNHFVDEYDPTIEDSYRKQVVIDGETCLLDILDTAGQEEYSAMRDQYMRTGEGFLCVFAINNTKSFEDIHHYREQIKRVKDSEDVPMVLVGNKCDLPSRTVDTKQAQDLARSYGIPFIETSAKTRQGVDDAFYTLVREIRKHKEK
K-Ras G12C, sequence (P62937 whole entry): as the sequence (P62937 whole entry) above
A further experiment concerns the target KRAS G13D (Homo sapiens (Human), UniProt P01116+P62937, G13D). Put plainly: Ras-Raf (BRAF RBD) disruption / FRET / MOA assay, KRAS G13D. It counts as biochemical. The conditions noted are these: read-out: IC50* KRAS G13D FRET data. Summed up: as §1

K-Ras G13C, sequence (P01116-2 other isoform, or with tags, fused parts or gaps G13C): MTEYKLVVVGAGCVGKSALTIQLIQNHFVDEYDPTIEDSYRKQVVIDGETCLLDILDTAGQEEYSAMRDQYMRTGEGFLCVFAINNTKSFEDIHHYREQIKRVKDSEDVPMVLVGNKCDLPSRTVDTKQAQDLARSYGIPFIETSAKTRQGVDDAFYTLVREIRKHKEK
K-Ras G13C, sequence (P62937 whole entry): as the sequence (P62937 whole entry) above
KRAS G12S, sequence (P01116-2 other isoform, or with tags, fused parts or gaps G12S): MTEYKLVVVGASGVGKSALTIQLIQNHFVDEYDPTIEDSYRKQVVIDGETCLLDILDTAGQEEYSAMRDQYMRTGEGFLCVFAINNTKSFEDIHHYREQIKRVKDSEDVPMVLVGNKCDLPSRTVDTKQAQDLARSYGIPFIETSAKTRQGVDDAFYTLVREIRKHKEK
KRAS G12S, sequence (P62937 whole entry): as the sequence (P62937 whole entry) above
NRAS G12C, sequence (P01111 whole entry G12C): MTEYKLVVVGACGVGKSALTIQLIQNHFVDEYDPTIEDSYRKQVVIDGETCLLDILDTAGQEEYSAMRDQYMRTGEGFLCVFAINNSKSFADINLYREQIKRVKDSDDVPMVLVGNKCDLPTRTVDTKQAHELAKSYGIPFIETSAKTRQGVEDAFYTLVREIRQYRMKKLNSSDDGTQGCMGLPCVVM
NRAS G12C, sequence (P62937 whole entry): as the sequence (P62937 whole entry) above
KRAS G12D, sequence (P01116-2 other isoform, or with tags, fused parts or gaps G12D): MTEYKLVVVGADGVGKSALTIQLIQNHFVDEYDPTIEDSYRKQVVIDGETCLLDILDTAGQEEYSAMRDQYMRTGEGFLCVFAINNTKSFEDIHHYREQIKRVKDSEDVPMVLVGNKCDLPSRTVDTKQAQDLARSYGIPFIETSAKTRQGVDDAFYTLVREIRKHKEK
KRAS G12D, sequence (P62937 whole entry): as the sequence (P62937 whole entry) above
KRAS G13D, sequence (P01116-2 other isoform, or with tags, fused parts or gaps G13D): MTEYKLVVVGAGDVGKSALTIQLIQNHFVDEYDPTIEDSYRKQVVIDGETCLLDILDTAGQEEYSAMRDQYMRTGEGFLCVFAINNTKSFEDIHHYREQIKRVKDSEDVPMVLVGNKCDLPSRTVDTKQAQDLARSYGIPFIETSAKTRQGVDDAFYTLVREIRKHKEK
KRAS G13D, sequence (P62937 whole entry): as the sequence (P62937 whole entry) above
KRAS G12V, sequence (P01116-2 other isoform, or with tags, fused parts or gaps G12V): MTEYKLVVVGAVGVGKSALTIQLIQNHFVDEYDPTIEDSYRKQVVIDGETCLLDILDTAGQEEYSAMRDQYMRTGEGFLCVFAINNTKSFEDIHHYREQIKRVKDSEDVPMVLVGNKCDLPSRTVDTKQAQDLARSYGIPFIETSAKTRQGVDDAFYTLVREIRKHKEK
KRAS G12V, sequence (P62937 whole entry): as the sequence (P62937 whole entry) above

Take `CCn1c(-c2cccnc2[C@H](C)OC)c2c3cc(ccc31)-c1cc(O)cc(c1)C[C@H](NC(=O)[C@H](C(C)C)N(C)C(=O)[C@H]1CCN(C(=O)/C=C/C(F)(F)F)C1)C(=O)N1CCC[C@H](N1)C(=O)OCC(C)(C)C2` [Example A527]: the half-maximal inhibitory concentration (IC50) at KRAS G12D is 0.1 to 1 µM; at KRAS G12V, 0.01 to 0.1 µM; at K-Ras G13C, 0.01 to 0.1 µM; at KRAS WT, 0.01 to 0.1 µM; on NRAS G12C it was less than 0.01 µM; in the experiment on NCI-H358 (K-Ras G12C) it was less than 0.01 µM. In addition, the figures for the IC50 on KRAS G12S, on K-Ras G12C and on KRAS G13D were 0.01 to 0.1 µM, less than 0.01 µM and 0.01 to 0.1 µM, respectively. The EC50 in [1] is less than 5 µM.

In the case of `C=CC(=O)N1CC[C@H](C(=O)N(C)[C@H](C(=O)N[C@H]2Cc3cccc(c3F)-c3ccc4c(c3)c(c(-c3cccnc3[C@H](C)OC)n4CC)CC(C)(C)COC(=O)[C@@H]3CCCN(N3)C2=O)C(C)C)C1` (atropisomer, axis not shown) [Example A327], the IC50 was more than 10 µM on KRAS G12D; more than 10 µM on KRAS G12V; 1 to 10 µM at K-Ras G13C; more than 10 µM on KRAS WT; 0.1 to 1 µM on NRAS G12C; 0.01 to 0.1 µM in the experiment with NCI-H358 (K-Ras G12C). The results for the IC50 on KRAS G12S, on K-Ras G12C and at KRAS G13D were 1 to 10 µM, 0.1 to 1 µM and more than 10 µM, respectively. In addition, the EC50 in [1] is less than 5 µM.

With `C=CC(=O)N1CCC2(CCN([C@H](C(=O)N[C@H]3Cc4cc(O)cc(c4)-c4ccc5c(c4)c(c(-c4cccnc4[C@H](C)OC)n5CC)CC(C)(C)COC(=O)[C@@H]4CCCN(N4)C3=O)C(C)C)C2=O)C1` (stereo partly drawn) [Example A295], the IC50 on KRAS G12D was 0.1 to 1 µM; on KRAS G12V it was 0.01 to 0.1 µM; on K-Ras G13C, 0.01 to 0.1 µM; at KRAS WT, 0.01 to 0.1 µM; at NRAS G12C it was 0.01 to 0.1 µM; in the experiment with NCI-H358 (K-Ras G12C), less than 0.01 µM. In addition, the results for the half-inhibitory concentration (IC50) at KRAS G12S, on K-Ras G12C and on KRAS G13D were 0.01 to 0.1 µM, 0.01 to 0.1 µM and 0.1 to 1 µM, respectively. In addition, the EC50 in experiment [1] is less than 5 µM.

Consider `CCn1c(-c2cnccc2COC)c2c3cc(ccc31)-c1cncc(c1)C[C@H](NC(=O)[C@H](C(C)C)N(C)C(=O)[C@H]1CCN(C(=O)C#CCN(C)C)C1)C(=O)N1CCC[C@H](N1)C(=O)OCC(C)(C)C2` [Example A139], for which the IC50 on KRAS G12D was 1 to 10 µM; at KRAS G12V, more than 10 µM; on K-Ras G13C, 1 to 10 µM; on KRAS WT it was more than 10 µM; on NRAS G12C, 0.1 to 1 µM; in the experiment on NCI-H358 (K-Ras G12C), 0.1 to 1 µM. The 50% inhibitory concentration (IC50) at KRAS G12S was more than 10 µM; on K-Ras G12C, 0.01 to 0.1 µM; on KRAS G13D, more than 10 µM. Besides, the EC50 in [1] is less than 5 µM.

For `CCn1c(-c2ccccc2CN(C)C)c2c3cc(ccc31)-c1cc(O)cc(c1)C[C@H](NC(=O)[C@@H](C(C)C)N(C)C(=O)c1ncc(NC(=O)/C=C/CN(C)C)n1C)C(=O)N1CCC[C@H](N1)C(=O)OCC(C)(C)C2` [Example A126], the IC50 at KRAS G12D was more than 10 µM; on KRAS G12V, more than 10 µM; at K-Ras G13C it was 0.1 to 1 µM; on KRAS WT it was more than 10 µM; at NRAS G12C it was 0.01 to 0.1 µM; with NCI-H358 (K-Ras G12C), more than 1 µM. In addition, the IC50 on KRAS G12S was more than 10 µM; at K-Ras G12C it was 0.01 to 0.1 µM; on KRAS G13D, more than 10 µM. In addition, in experiment [1], the EC50 is less than 5 µM.

Take `C=CC(=O)N1CC[C@H](C(=O)N(C)[C@H](C(=O)N[C@H]2Cc3cc(O)cc(c3)-c3ccc4c(c3)c(c(-c3cc(CN(C)C)nn3C)n4CC)CC(C)(C)COC(=O)[C@@H]3CCCN(N3)C2=O)C(C)C)C1` [Example A109]: the IC50 on KRAS G12D is more than 10 µM; at KRAS G12V it was 1 to 10 µM; on K-Ras G13C it was more than 10 µM; on KRAS WT, more than 10 µM; at NRAS G12C, 0.1 to 1 µM; in the experiment with NCI-H358 (K-Ras G12C), 0.1 to 1 µM. The half-inhibitory concentration (IC50) is 1 to 10 µM at KRAS G12S, 0.1 to 1 µM at K-Ras G12C and more than 10 µM on KRAS G13D. The EC50 in experiment [1] was less than 5 µM.

Values taken from patent US11566007B2, “Ras inhibitors” (Revolution Medicines, Inc., priority 2019, dated 2023).
